This assay concerns female NMRI mice. As to the kind of experiment: Anorectic action: cumulative milk consumption after 24 h removal of feed. It is filed as in vivo. The following applies: 30 mg/kg i.p. The procedure:
The anorectic action was tested on female NMRI mice. After removal of feed for 24 hours, the preparation to be tested was administered intraperitoneally (i.p.) or by gavage (po). The animals were housed singly and, with free access to drinking water, they were offered evaporated milk 30 minutes after administration of the preparation. The consumption of evaporated milk was determined and the general behavior of the animals was monitored every half an hour for 7 hours. The measured milk consumption was compared to that of vehicle-treated control animals.

With `CC1(O)c2ccc(Cl)cc2CC1(F)S(C)(=O)=O` (centres unmarked) [Example 1, 5-Chloro-2-fluoro-2-methanesulfonyl-1-methyl-indan-1-ol], the “Reduction in cumulative milk consumption as % of the control” value (compared with control animals) was 25%. Also, the “cumulative milk consumption by treated animals” value (feed removed for 24 h, evaporated milk offered 30 min after administration, monitored for 7 hours) was 4/2.88 ml.

The record behind these values is patent publication US6812256B2, “Polysubstituted indan-1-ol systems for the prophylaxis or treatment of obesity” (Aventis Pharma Deutschland GmbH, priority 2001, dated 2004).
